Reference: patent publication US12054498B2, “Heteroaromatic macrocyclic ether chemotherapeutic agents” (Nuvalent, Inc., priority 2020, dated 2024)
pIC50, pKi: −log10 of the molar value.

Columns and labels:
ALK-wt = target: T1, ALK-wt (Homo sapiens, UniProt Q9UM73); assay: Biochemical kinase assay, ALK-wt kinase domain; conditions: apparent inhibitory constant, Morrison equation; ATP 2 mM in substrate solution; read-out: ALK-wt Ki^app
T1 construct: purchased Carna 08-518
In short: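 Compound in DMSO added first, then substrate solution (ATP 2 mM; AQT0101 or AQT0104, 26 μM; pH 7.5 HEPES, 10 mM MgCl2), then kinase solution with enzyme at 0.5–3 nM depending on construct. Kinetic read every 2 min for 120 min at 30° C; Ki^app by Morrison regression.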

ALK L1196M/G1202R = target: T2, ALK L1196M/G1202R (Homo sapiens, UniProt Q9UM73, G1202R/L1196M); assay: Biochemical kinase assay, ALK L1196M/G1202R kinase domain; conditions: apparent inhibitory constant, Morrison equation; ATP 2 mM in substrate solution; read-out: ALK-L1196M-G1202R Ki^app
T2 construct: purchased SignalChem A19-12NG
In short: (§1)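 Continuous fluorescence read (λ=485 nm, every 2 min, 120 min, 30° C). Substrate solution held 2 mM ATP and 26 μM AQT0101 (ROS1/ALK) or AQT0104 (TRKA). Kinase solution: ROS1-G2032R 0.5 nM, ROS1-wt 0.6 nM, TRKA 1 nM, ALK double mutant 3 nM. Initial linear rates fed a Morrison-equation fit giving Ki^app.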

ROS1-wt = target: T3, ROS1-wt (Homo sapiens, UniProt P08922); assay: Biochemical kinase assay, ROS1-wt kinase domain; conditions: apparent inhibitory constant, Morrison equation; ATP 2 mM in substrate solution; read-out: ROS1-wt Ki^app
T3 construct: purchased Carna 08-163
In short: (§2)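 Kinetic read: 485 nm, 2-min intervals, 120 min, 30 °C. Substrate mix — ATP 2 mM, AQT0101 26 μM, HEPES 50 mM pH 7.5, MgCl2 10 mM. Output: Ki^app, Morrison equation.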

ROS1-G2032R = target: T4, ROS1-G2032R (Homo sapiens, UniProt P08922, G2032R); assay: Biochemical kinase assay, ROS1-G2032R kinase domain; conditions: apparent inhibitory constant, Morrison equation; ATP 2 mM in substrate solution; read-out: ROS1-G2032R Ki^app
T4 construct: purchased SignalChem R14-12BG
In short: as §2

TRKA-wt = target: T5, TRKA-wt (Homo sapiens, UniProt P04629); assay: Biochemical kinase assay, TRKA-wt kinase domain; conditions: apparent inhibitory constant, Morrison equation; ATP 2 mM in substrate solution; read-out: TRKA-wt Ki^app
T5 construct: or TRKA-wt (1 nM, BPS Bio, 40280) kinase domains in buffer; purchased BPS Bio 40280
In short: as §1

[1] = target: T6, Ba/F3 cells CD74-ROS1 wild-type (wt) (Homo sapiens, UniProt P08922); assay: Ba/F3 cell proliferation assay, CD74-ROS1 wild-type; type: cell-based; conditions: 72 hours, CellTiter-Glo
T6 construct: fusion of the C-terminus of ROS1 with the N-terminus of various partner proteins; host or cells: Ba/F3 (RIKEN), retroviral pMSCV-puro; the other entry of the earlier key: CD74 (P04233, HLA class II histocompatibility antigen gamma chain)
In short: (§3)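 Cells were seeded 1 day, then exposed to a 3-fold compound dilution series for 72 hours. Viability was read by CellTiter-Glo luminescence; IC50 came from four-parameter logistic fitting of percent inhibition.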

[2] = target: T7, Ba/F3 cells CD74-ROS1 G2032R (Homo sapiens, UniProt P08922, G2032R); assay: Ba/F3 cell proliferation assay, CD74-ROS1 G2032R; type: cell-based; conditions: 72 hours, CellTiter-Glo
T7 construct: fusion of the C-terminus of ROS1 with the N-terminus of various partner proteins; host or cells: Ba/F3 (RIKEN), retroviral pMSCV-puro; the other entry of the earlier key: CD74 (P04233, HLA class II histocompatibility antigen gamma chain)
In short: as §3

[3] = target: T8, Ba/F3 cells EML4-ALK wt (variant 1) (Homo sapiens, UniProt Q9UM73); assay: Ba/F3 cell proliferation assay, EML4-ALK wt (variant 1); type: cell-based; conditions: 72 hours, CellTiter-Glo
T8 construct: echinoderm microtubule-associated protein-like 4 (EML4) gene and the ALK tyrosine kinase domain; host or cells: Ba/F3 (RIKEN), retroviral pMSCV-puro; the other entry of the earlier key: EML4 (Q9HC35, Echinoderm microtubule-associated protein-like 4)
In short: (§4)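 First, Ba/F3 cells were made IL-3-independent via retroviral fusion expression and puromycin selection, then cloned by single-cell dilution. Next, 1,000 cells/well were plated for a day, exposed to 3-fold diluted compounds for 72 hours, and lysed with CellTiter-Glo. Finally, IC50 was fitted by four-parameter logistic regression.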

[4] = target: T9, Ba/F3 cells EML4-ALK L1196M/G1202R (variant 1) (Homo sapiens, UniProt Q9UM73, G1202R/L1196M); assay: Ba/F3 cell proliferation assay, EML4-ALK L1196M/G1202R (variant 1); type: cell-based; conditions: 72 hours, CellTiter-Glo
T9 construct: echinoderm microtubule-associated protein-like 4 (EML4) gene and the ALK tyrosine kinase domain; host or cells: Ba/F3 (RIKEN), retroviral pMSCV-puro; the other entry of the earlier key: EML4 (Q9HC35, Echinoderm microtubule-associated protein-like 4)
In short: as §4

Ba/F3 cells TPM3-TRKA = target: T10, Ba/F3 cells TPM3-TRKA (Homo sapiens, UniProt P04629); assay: Ba/F3 cell proliferation assay, TPM3-TRKA; type: cell-based; conditions: 72 hours, CellTiter-Glo, read-out: TPM3-NTRK1-wt IC50
T10 construct: host or cells: Ba/F3 (RIKEN), retroviral pMSCV-puro; the other entry of the earlier key: TPM3 (P06753, Tropomyosin alpha-3 chain)
In short: as §4

[5] = system: TPM3-NTRK1-wt IC50 / primary target IC50 (e.g. CD74-ROS1-wt); assay: TRKA selectivity in Ba/F3 cells (TRKA potency divided by primary target potency); type: cell-based; conditions: for TPM3-NTRK1-wt/CD74-ROS1-G2032R selectivity ratio: TRKA potency / CD74-ROS1-G2032R potency; for TPM3-NTRK1-wt/CD74-ROS1-wt selectivity ratio: TRKA potency / CD74-ROS1-wt potency; for TPM3-NTRK1-wt/EML4-ALK-L1196M-G1202R selectivity ratio: TRKA potency / EML4-ALK-L1196M-G1202R potency; for TPM3-NTRK1-wt/EML4-ALK-wt selectivity ratio: TRKA potency / EML4-ALK-wt potency
Method: TRKA selectivity was calculated by dividing a compound's TRKA potency by its primary target potency (e.g. TPM3-NTRK1-wt IC50/CD74-ROS1-wt IC50). Compound selectivity can be interpreted by binning ratio values: bin A for very high selectivity, ratio >30-fold; bin B for high selectivity, ratio >10-fold; bin C for moderate selectivity, ratio ≥1; and bin D for low selectivity, ratio <1. […] (nd=not determined).

T3 sequence (P08922 1945-2222 limits assumed): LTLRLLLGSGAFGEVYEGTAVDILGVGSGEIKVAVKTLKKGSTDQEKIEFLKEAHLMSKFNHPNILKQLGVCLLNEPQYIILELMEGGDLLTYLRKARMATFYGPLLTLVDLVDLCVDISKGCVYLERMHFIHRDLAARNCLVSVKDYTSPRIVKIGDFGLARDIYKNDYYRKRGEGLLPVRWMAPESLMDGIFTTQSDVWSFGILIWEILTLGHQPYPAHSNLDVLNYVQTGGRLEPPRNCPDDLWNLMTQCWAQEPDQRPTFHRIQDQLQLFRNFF
T6 sequence (P08922 1883-2347 limits assumed): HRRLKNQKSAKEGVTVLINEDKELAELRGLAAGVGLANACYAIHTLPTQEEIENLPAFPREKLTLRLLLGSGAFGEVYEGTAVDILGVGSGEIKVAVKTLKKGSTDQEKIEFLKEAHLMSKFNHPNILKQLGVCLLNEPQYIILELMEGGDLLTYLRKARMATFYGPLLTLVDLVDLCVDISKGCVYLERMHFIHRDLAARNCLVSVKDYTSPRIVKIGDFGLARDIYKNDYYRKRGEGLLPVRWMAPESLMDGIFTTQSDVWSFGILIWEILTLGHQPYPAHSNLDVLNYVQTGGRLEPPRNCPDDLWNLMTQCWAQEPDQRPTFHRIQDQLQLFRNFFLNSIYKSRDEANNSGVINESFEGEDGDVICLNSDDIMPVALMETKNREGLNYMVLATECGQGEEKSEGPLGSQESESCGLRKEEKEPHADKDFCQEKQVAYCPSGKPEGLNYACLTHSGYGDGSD
T10 sequence (P04629 510-796 limits assumed): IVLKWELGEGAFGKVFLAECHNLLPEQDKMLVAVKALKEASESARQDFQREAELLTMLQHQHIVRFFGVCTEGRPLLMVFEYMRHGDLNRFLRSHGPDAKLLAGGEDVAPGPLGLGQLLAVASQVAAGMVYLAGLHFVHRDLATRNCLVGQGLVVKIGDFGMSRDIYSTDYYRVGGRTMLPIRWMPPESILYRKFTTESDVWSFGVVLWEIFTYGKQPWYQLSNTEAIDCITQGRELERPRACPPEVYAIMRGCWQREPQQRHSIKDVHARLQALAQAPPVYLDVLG
T5 sequence (P04629 510-781 limits assumed): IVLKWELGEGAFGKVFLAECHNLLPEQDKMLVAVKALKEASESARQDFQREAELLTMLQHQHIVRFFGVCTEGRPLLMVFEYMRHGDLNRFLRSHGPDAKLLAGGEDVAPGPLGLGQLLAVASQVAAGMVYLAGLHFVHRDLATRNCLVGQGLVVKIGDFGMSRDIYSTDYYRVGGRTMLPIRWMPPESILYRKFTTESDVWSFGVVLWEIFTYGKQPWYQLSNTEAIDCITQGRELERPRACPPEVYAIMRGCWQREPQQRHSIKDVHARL
T2 sequence (Q9UM73 1116-1392 L1196M/G1202R limits assumed): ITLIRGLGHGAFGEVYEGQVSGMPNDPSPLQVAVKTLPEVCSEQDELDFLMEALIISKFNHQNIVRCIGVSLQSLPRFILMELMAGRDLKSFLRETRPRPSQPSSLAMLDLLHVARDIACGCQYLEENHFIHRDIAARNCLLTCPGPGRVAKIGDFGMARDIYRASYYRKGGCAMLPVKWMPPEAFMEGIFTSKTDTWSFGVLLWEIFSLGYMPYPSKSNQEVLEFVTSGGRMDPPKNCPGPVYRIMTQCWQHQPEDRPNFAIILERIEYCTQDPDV
T7 sequence (P08922 1883-2347 G2032R limits assumed): as the sequence (P08922 1883-2347 limits assumed) above, with G150R counted along it
T4 sequence (P08922 1945-2222 G2032R limits assumed): as the sequence (P08922 1945-2222 limits assumed) above, with G88R counted along it
T1 sequence (Q9UM73 1116-1392 limits assumed): as the sequence (Q9UM73 1116-1392 L1196M/G1202R limits assumed) above, with M81L, R87G counted along it
T8 sequence (Q9UM73 with tags, fused parts or gaps): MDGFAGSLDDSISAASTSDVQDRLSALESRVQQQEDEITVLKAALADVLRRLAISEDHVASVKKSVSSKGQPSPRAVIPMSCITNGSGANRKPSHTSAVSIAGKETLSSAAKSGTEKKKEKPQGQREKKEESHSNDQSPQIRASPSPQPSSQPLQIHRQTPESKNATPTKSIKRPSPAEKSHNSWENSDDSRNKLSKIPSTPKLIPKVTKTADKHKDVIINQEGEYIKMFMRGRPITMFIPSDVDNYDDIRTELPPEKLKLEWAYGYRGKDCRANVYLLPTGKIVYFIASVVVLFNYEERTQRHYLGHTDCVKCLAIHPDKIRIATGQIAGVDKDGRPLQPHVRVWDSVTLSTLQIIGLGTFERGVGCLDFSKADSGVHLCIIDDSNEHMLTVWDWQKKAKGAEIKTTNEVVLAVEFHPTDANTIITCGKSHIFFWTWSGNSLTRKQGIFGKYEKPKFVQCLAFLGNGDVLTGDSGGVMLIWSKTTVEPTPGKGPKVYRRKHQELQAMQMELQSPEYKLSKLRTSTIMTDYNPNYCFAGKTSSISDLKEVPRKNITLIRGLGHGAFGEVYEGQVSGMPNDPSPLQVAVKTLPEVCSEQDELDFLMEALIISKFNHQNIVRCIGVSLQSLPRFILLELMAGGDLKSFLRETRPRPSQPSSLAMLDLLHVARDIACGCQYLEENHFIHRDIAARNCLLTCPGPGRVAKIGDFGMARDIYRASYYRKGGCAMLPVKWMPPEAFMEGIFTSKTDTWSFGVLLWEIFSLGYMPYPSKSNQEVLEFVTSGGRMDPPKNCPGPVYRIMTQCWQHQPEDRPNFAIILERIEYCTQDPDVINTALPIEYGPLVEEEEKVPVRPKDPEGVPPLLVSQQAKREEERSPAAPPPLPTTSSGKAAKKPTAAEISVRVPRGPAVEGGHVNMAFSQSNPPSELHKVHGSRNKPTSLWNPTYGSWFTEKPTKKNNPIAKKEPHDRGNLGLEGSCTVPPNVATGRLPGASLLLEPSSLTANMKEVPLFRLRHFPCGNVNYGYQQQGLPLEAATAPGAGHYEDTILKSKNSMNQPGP
T9 sequence (Q9UM73 with tags, fused parts or gaps L1196M/G1202R): as the sequence (Q9UM73 with tags, fused parts or gaps) above, with L635M, G641R counted along it

| pKi (ALK-wt) | pKi (ALK L1196M/G1202R) | pKi (ROS1-wt) | pKi (ROS1-G2032R) | pKi (TRKA-wt) | pIC50 [1] | pIC50 [2] | pIC50 [3] | pIC50 [4] | pIC50 (Ba/F3 cells TPM3-TRKA) | SMILES | TPM3-NTRK1-wt/CD74-ROS1-G2032R selectivity ratio [5] | TPM3-NTRK1-wt/CD74-ROS1-wt selectivity ratio [5] | TPM3-NTRK1-wt/EML4-ALK-L1196M-G1202R selectivity ratio [5] | TPM3-NTRK1-wt/EML4-ALK-wt selectivity ratio [5] |
| --- | --- | --- | --- | --- | --- | --- | --- | --- | --- | --- | --- | --- | --- | --- |
| 6.30 to 7.30 | 6.30 to 7.30 | > 7.30 | 6.30 to 7.30 | < 6.30 | 7.30 to 10.00 | 7.30 to 10.00 | 6.30 to 7.30 | < 6.30 | < 6.30 | C[C@H]1Oc2cc(cnc2N)-c2c(c(Cl)nn2CC(F)F)Cc2nn(C)nc2-c2ccc(F)cc21 [Example 60, (19R)-5-chloro-3-(2,2difluoroethyl)-16-fluoro-10,19-dimethyl-20-oxa-3,4,9,10,11,23-hexaazapentacyclo[19.3.1.0^2,^6.0^8,^12.0^13,^18]pentacosa-1(24),2(6),4,8,11,13,15,17,21(25),22-decaen-22-amine] | A (bin A for very high selectivity, ratio >30-fold) | A (bin A for very high selectivity, ratio >30-fold) | B (bin B for high selectivity, ratio >10-fold) | A (bin A for very high selectivity, ratio >30-fold) |
| > 7.30 | > 7.30 | > 7.30 | > 7.30 | < 6.30 | 7.30 to 10.00 | 7.30 to 10.00 | 7.30 to 10.00 | 7.30 to 10.00 | < 6.30 | C[C@H]1Oc2cc(cnc2N)-c2c(cnn2CC2CC2)Cc2nn(C)cc2-c2ccc(F)cc21 [Example 61, (19R)-3-(cyclopropylmetbyl)-16-fluoro-10,19-dimethyl-20-oxa-3,4,9,10,23-pentaazapentacyclo[19.3.1.0^2,^6.0^8,^12.0^13,^18]pentacosa-1(24),2(6),4,8,11,13,15,17,21(25),22-decaen-22-amine] | A (bin A for very high selectivity, ratio >30-fold) | A (bin A for very high selectivity, ratio >30-fold) | A (bin A for very high selectivity, ratio >30-fold) | A (bin A for very high selectivity, ratio >30-fold) |

Continued, molecule first:

| SMILES | pKi (ALK-wt) | pKi (ALK L1196M/G1202R) | pKi (ROS1-wt) | pKi (ROS1-G2032R) | pKi (TRKA-wt) | pIC50 [1] | pIC50 [2] | pIC50 [3] | pIC50 [4] | pIC50 (Ba/F3 cells TPM3-TRKA) | TPM3-NTRK1-wt/CD74-ROS1-G2032R selectivity ratio [5] | TPM3-NTRK1-wt/CD74-ROS1-wt selectivity ratio [5] | TPM3-NTRK1-wt/EML4-ALK-L1196M-G1202R selectivity ratio [5] | TPM3-NTRK1-wt/EML4-ALK-wt selectivity ratio [5] |
| --- | --- | --- | --- | --- | --- | --- | --- | --- | --- | --- | --- | --- | --- | --- |
| CCn1nc(C)c2c1-c1cnc(N)c(c1)O[C@H](C)c1cc(F)ccc1-c1ncnn1C2 [Example 56, (19R)-3-ethyl-16-fluoro-5,19-dimethyl-20-oxa-3,4,8,9,11,23-hexaazapentacyclo[19.3.1.0^2,^6.0^8,^12.0^13,^18]pentacosa-1(24),2(6),4,9,11,13,15,17,21(25),22-decaen-22-amine] | > 7.30 | > 7.30 | > 7.30 | > 7.30 | 6.30 to 7.30 | 7.30 to 10.00 | 7.30 to 10.00 | 7.30 to 10.00 | 6.30 to 7.30 | 6.30 to 7.30 | A (bin A for very high selectivity, ratio >30-fold) | A (bin A for very high selectivity, ratio >30-fold) | C (bin C for moderate selectivity, ratio ≥1) | B (bin B for high selectivity, ratio >10-fold) |
| CCc1noc2c1-c1cnc(N)c(c1)O[C@H](C)c1cc(F)ccc1-c1nnnn1C2 [Example 58, (19R)-3-ethyl-16-fluoro-19-methyl-5,20-dioxa-4,8,9,10,11,23-hexaazapentacyclo[19.3.1.0^2,^6.0^8,^12.0^13,^18]pentacosa-1(24),2(6),3,9,11,13,15,17,21(25),22-decaen-22-amine] | > 7.30 | 6.30 to 7.30 | > 7.30 | 6.30 to 7.30 | 6.30 to 7.30 | 7.30 to 10.00 | 6.30 to 7.30 | 6.30 to 7.30 | < 6.30 | 6.30 to 7.30 | C (bin C for moderate selectivity, ratio ≥1) | A (bin A for very high selectivity, ratio >30-fold) | D (bin D for low selectivity, ratio <1) | C (bin C for moderate selectivity, ratio ≥1) |
| CCn1ncc2c1-c1cnc(N)c(c1)O[C@H](C)c1cc(F)ccc1-c1nsnc1C2 [Example 62, (19R)-3-ethyl-16-fluoro-19-methyl-20-oxa-10-thia-3,4,9,11,23-pentaazapentacyclo[19.3.1.0^2,^6.0^8,^12.0^13,^18]pentacosa-1(24),2(6),4,8,11,13,15,17,21(25),22-decaen-22-amine] | > 7.30 | > 7.30 | > 7.30 | > 7.30 | 6.30 to 7.30 | 7.30 to 10.00 | 7.30 to 10.00 | 7.30 to 10.00 | 7.30 to 10.00 | 6.30 to 7.30 | A (bin A for very high selectivity, ratio >30-fold) | A (bin A for very high selectivity, ratio >30-fold) | C (bin C for moderate selectivity, ratio ≥1) | A (bin A for very high selectivity, ratio >30-fold) |
